Data on 14 compounds can be found in patent US8399451B2, “Heterocyclic compounds” (Bristol-Myers Squibb Company, priority 2009, dated 2013).

For one assay, the target named is S1P1 (Homo sapiens, UniProt P21453). Kind of assay: Receptor [35S] GTPγS Binding Assay, membranes from S1P1/CHO cells. Type of assay: biochemical. Also noted: expressed in transfected cells; host or cells: S1P1/CHO cells. The settings on record: for EC50: membranes from S1P1/CHO cells, read-out: S1P1 GTPγS EC50; for S1P3/S1P1 GTPγS (ratio of S1P3 GTPγS EC50 to S1P1 GTPγS EC50): selectivity ratio calculated from Table B, * may be greater than reported value due to S1P3 assay limits. On the procedure: (§1) Receptor [35S] GTPγS Binding Assays
Chain of S1P1 (P21453 whole entry): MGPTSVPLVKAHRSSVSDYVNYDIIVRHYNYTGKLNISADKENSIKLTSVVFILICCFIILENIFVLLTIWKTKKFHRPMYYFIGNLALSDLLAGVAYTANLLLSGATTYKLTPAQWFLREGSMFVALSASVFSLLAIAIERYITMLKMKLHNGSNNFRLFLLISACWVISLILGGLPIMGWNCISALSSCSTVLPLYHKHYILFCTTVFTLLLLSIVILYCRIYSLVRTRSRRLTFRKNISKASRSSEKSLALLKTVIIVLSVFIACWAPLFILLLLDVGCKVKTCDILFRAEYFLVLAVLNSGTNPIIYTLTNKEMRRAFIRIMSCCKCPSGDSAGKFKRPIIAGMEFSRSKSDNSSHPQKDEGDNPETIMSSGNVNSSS
(§2) Membranes prepared from S1P1/CHO cells or EDG3-Ga15-bla HEK293T cells were added to the compound plate (40 μl/well, final protein 3 μg/well) with MULTIDROP®. [^35S]GTP (1250 Ci/mmol, Perkin Elmer) was diluted in assay buffer: 20 mM HEPES, pH7.5, 10 mM MgCl2, 150 mM NaCl, 1 mM EGTA, 1 mM DTT, 10 μM GDP, 0.1% fatty acid free BSA, and 10 μg/ml Saponin to 0.4 nM. 40 μl of the [^35S] GTP solution was added to the compound plate with a final concentration of 0.2 nM. […] At the end of incubation, all the mixtures in the compound plate were transferred to a 384 well FB filter plates via GPCR robot system. […] 30 μl of MicroScint 20 scintillation fluid was added to each well for counting at Packard TOPCOUNT®.

The target of another assay is T1, S1P3 (Homo sapiens, UniProt Q99500).
T1 construct: expressed in transfected cells; host or cells: EDG3-Ga15-bla HEK293T cells
T1 sequence (Q99500 whole entry): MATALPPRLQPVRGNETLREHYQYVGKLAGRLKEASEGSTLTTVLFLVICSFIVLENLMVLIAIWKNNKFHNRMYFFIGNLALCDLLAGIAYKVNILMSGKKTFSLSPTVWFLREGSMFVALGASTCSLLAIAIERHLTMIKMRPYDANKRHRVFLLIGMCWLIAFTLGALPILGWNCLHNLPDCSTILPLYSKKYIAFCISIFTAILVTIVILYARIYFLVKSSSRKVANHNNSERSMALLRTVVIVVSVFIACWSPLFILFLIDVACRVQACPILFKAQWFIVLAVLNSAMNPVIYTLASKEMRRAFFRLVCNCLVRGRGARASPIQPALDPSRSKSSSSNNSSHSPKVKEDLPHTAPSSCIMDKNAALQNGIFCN
The assay is described as follows: Receptor [35S] GTPγS Binding Assay, membranes from EDG3-Ga15-bla HEK293T cells. The settings on record: * detection limit 31,000 nM or 62,000 nM. The format is biochemical. As to the method:
as §1, §2
A general note: GTPγS is a poorly hydrolysed GTP analogue; its binding reports G protein activation.

Molecules are shown by their SMILES. Counter-ions that a name gives are not always drawn.

For orientation: EC50 means the concentration needed to bring the measured effect to its halfway point.

With `Cc1cccc(-c2noc(-c3nc(-c4ccc(C(O)CN5CCC[C@H](C(=O)O)C5)cc4)no3)c2C(F)(F)F)n1` (stereo partly drawn) [Example 37, (3S)-1-(2-Hydroxy-2-(4-(5-(3-(6-methylpyridin-2-yl)-4-(trifluoromethyl)isoxazol-5-yl)-1,2,4-oxadiazol-3-yl)phenyl)ethyl)piperidine-3-carboxylic acid], the EC50 on S1P1 was 69 nM; on S1P3, greater than 62000 nM. Moreover, at S1P1, the “S1P3/S1P1 GTPγS (ratio of S1P3 GTPγS EC50 to S1P1 GTPγS EC50)” value is listed as ≥ 910*.

Consider `O=C(O)[C@H]1CCCCN1CC(O)c1ccc(-c2noc(-c3onc(-c4ccccc4)c3C(F)(F)F)n2)cc1` (stereo partly drawn) [Example 41, (2R)-1-(2-Hydroxy-2-(4-(5-(3-phenyl-4-(trifluoromethyl)isoxazol-5-yl)-1,2,4-oxadiazol-3-yl)phenyl)ethyl)piperidine-2-carboxylic acid], for which the EC50 at S1P1 is 5.4 nM; on S1P3, 7500 nM. The “S1P3/S1P1 GTPγS (ratio of S1P3 GTPγS EC50 to S1P1 GTPγS EC50)” value at S1P1 is on record as 1400.

As to `O=C(O)[C@H]1CCCN(CC(O)c2ccc(-c3noc(-c4ccc(-c5ccccn5)s4)n3)cc2)C1` (stereo partly drawn) [Example 43, (3S)-1-(2-hydroxy-2-(4-(5-(5-(pyridin-2-yl)thiophen-2-yl)-1,2,4-oxadiazol-3-yl)phenyl)ethyl)piperidine-3-carboxylic acid], at S1P1, the EC50 was determined as 360 nM and the “S1P3/S1P1 GTPγS (ratio of S1P3 GTPγS EC50 to S1P1 GTPγS EC50)” value is ≥ 170*. The concentration for a half-maximal effect (EC50) at S1P3 is greater than 62000 nM.

Take `Cc1nc(-c2ccccc2)sc1-c1nc(-c2ccc(C(O)CN3CCC[C@H](C(=O)O)C3)cc2)no1` (stereo partly drawn) [Example 46, (3S)-1-(2-hydroxy-2-(4-(5-(4-methyl-2-phenylthiazol-5-yl)-1,2,4-oxadiazol-3-yl)phenyl)ethyl)piperidine-3-carboxylic acid]: on S1P1, the EC50 turned out to be 630 nM and the “S1P3/S1P1 GTPγS (ratio of S1P3 GTPγS EC50 to S1P1 GTPγS EC50)” value is on record as 13. This compound also had a concentration for a half-maximal effect (EC50) at S1P3 of 8100 nM.

`O=C(O)[C@H]1CCCN(CC(O)c2ccc(-c3noc(-c4cc(-c5ccc(Cl)cc5)on4)n3)cc2)C1` (stereo partly drawn) [Example 53, (3S)-1-(2-(4-(5-(5-(4-chlorophenyl)isoxazol-3-yl)-1,2,4-oxadiazol-3-yl)phenyl)-2-hydroxyethyl)piperidine-3-carboxylic acid]: the half-maximal effective concentration (EC50) is 1900 nM at S1P1 and greater than 31000 nM on S1P3. Further, at S1P1, the “S1P3/S1P1 GTPγS (ratio of S1P3 GTPγS EC50 to S1P1 GTPγS EC50)” value is listed as ≥ 16*.

On to `O=C(O)C[C@H]1CCCN(C[C@@H](O)c2ccc(-c3noc(-c4cnn(C5CCCCC5)c4C(F)(F)F)n3)cc2)C1` [Example 59, 2-((R)-1-((S)-2-(4-(5-(1-cyclohexyl-5-(trifluoromethyl)-1H-pyrazol-4-yl)-1,2,4-oxadiazol-3-yl)phenyl)-2-hydroxyethyl)piperidin-3-yl)acetic acid, HCl], for which the values for the EC50 at S1P1 and at S1P3 were 1.8 nM and 2080 nM, respectively. Also, the “S1P3/S1P1 GTPγS (ratio of S1P3 GTPγS EC50 to S1P1 GTPγS EC50)” value on S1P1 is reported as 1160.

For `O=C(O)C[C@H]1CCCN(C[C@@H](O)c2ccc(-c3noc(-c4cnn(-c5ccc(Cl)cn5)c4C(F)(F)F)n3)cc2)C1` [Example 70, 2-((R)-1-((S)-2-(4-(5-(1-(5-chloropyridin-2-yl)-5-(trifluoromethyl)-1H-pyrazol-4-yl)-1,2,4-oxadiazol-3-yl)phenyl)-2-hydroxyethyl)piperidin-3-yl)acetic acid, HCl], the EC50 at S1P1 was found to be 1.2 nM; on S1P3, 10400 nM. In addition, at S1P1, the “S1P3/S1P1 GTPγS (ratio of S1P3 GTPγS EC50 to S1P1 GTPγS EC50)” value is listed as 8800.

With `O=C(O)C[C@H]1CCCN(C[C@@H](O)c2ccc(-c3noc(-c4cnn(-c5ccccc5Cl)c4C(F)(F)F)n3)cc2)C1` [Example 72, 2-((3R)-1-((2S)-2-(4-(5-(1-(2-chlorophenyl)-5-(trifluoromethyl)-1H-pyrazol-4-yl)-1,2,4-oxadiazol-3-yl)phenyl)-2-hydroxyethyl)piperidin-3-yl)acetic acid, HCl], the results for the concentration for a half-maximal effect (EC50) at S1P1 and at S1P3 were 3.6 nM and 24800 nM, respectively. Further, on S1P1, the “S1P3/S1P1 GTPγS (ratio of S1P3 GTPγS EC50 to S1P1 GTPγS EC50)” value is given as 6900.

On to `O=C(O)C[C@H]1CCCN(C[C@@H](O)c2ccc(-c3noc(-c4cnn(-c5ccc(F)cc5F)c4C(F)(F)F)n3)cc2)C1` [Example 73, 2-((3R)-1-((2S)-2-(4-(5-(1-(2,4-difluorophenyl)-5-(trifluoromethyl)-1H-pyrazol-4-yl)-1,2,4-oxadiazol-3-yl)phenyl)-2-hydroxyethyl)piperidin-3-yl)acetic acid, HCl], for which, on S1P1, the EC50 amounted to 2.1 nM and the “S1P3/S1P1 GTPγS (ratio of S1P3 GTPγS EC50 to S1P1 GTPγS EC50)” value is recorded as 1030. The compound further displayed a concentration for a half-maximal effect (EC50) on S1P3 of 2200 nM.

Take `Cl.O=C(O)C[C@H]1CCCN(C[C@@H](O)c2ccc(-c3noc(-c4cnn(-c5ccc(F)cn5)c4C(F)(F)F)n3)cc2)C1` [Example 82, 2-((R)-1-((S)-2-(4-(5-(1-(5-fluoropyridin-2-yl)-5-(trifluoromethyl)-1H-pyrazol-4-yl)-1,2,4-oxadiazol-3-yl)phenyl)-2-hydroxyethyl)piperidin-3-yl)acetic acid, HCl]: on S1P1, the EC50 is 3 nM and the “S1P3/S1P1 GTPγS (ratio of S1P3 GTPγS EC50 to S1P1 GTPγS EC50)” value was 2050. The compound further showed an EC50 on S1P3 of 6090 nM.

In the case of `Cc1ccc(-n2ncc(-c3nc(-c4ccc([C@H](O)CN5CCC[C@H](CC(=O)O)C5)cc4)no3)c2C(F)(F)F)nc1` [Example 94, 2-((R)-1-((S)-2-hydroxy-2-(4-(5-(1-(5-methylpyridin-2-yl)-5-(trifluoromethyl)-1H-pyrazol-4-yl)-1,2,4-oxadiazol-3-yl)phenyl)ethyl)piperidin-3-yl)acetic acid], the results for the EC50 at S1P1 and at S1P3 were 8.6 nM and 6300 nM, respectively. Also, the “S1P3/S1P1 GTPγS (ratio of S1P3 GTPγS EC50 to S1P1 GTPγS EC50)” value at S1P1 is 730.

Regarding `O=C(O)[C@H]1CCCN(C[C@@H](O)c2ccc(-c3noc(-c4cnn(-c5ccc(C(F)(F)F)cn5)c4C(F)(F)F)n3)cc2)C1` [Example 98, (S)-1-((S)-2-hydroxy-2-(4-(5-(5-(trifluoromethyl)-1-(5-(trifluoromethyl)pyridin-2-yl)-1H-pyrazol-4-yl)-1,2,4-oxadiazol-3-yl)phenyl)ethyl)piperidine-3-carboxylic acid, HCl], at S1P1, the EC50 is 3 nM and the “S1P3/S1P1 GTPγS (ratio of S1P3 GTPγS EC50 to S1P1 GTPγS EC50)” value is given as 1100. Moreover, the EC50 at S1P3 amounted to 3300 nM.

As for `O=C(O)[C@H]1CCCN(C[C@@H](O)c2ccc(-c3noc(-c4cnn(-c5ncc(Cl)cc5Cl)c4C(F)(F)F)n3)cc2)C1` [Example 100, (S)-1-((S)-2-(4-(5-(1-(3,5-dichloropyridin-2-yl)-5-(trifluoromethyl)-1H-pyrazol-4-yl)-1,2,4-oxadiazol-3-yl)phenyl)-2-hydroxyethyl) piperidine-3-carboxylic acid, HCl], on S1P1, the half-maximal effective concentration (EC50) amounted to 6.8 nM and the “S1P3/S1P1 GTPγS (ratio of S1P3 GTPγS EC50 to S1P1 GTPγS EC50)” value is ≥ 4580*. Moreover, at S1P3, the EC50 is greater than 31000 nM.

As to `O=C(O)[C@H]1CCCN(C[C@@H](O)c2ccc(-c3noc(-c4cnn(-c5ccccn5)c4C(F)(F)F)n3)cc2)C1` [Example 104, (S)-1-((S)-2-hydroxy-2-(4-(5-(1-(pyridin-2-yl)-5-(trifluoromethyl)-1H-pyrazol-4-yl)-1,2,4-oxadiazol-3-yl)phenyl)ethyl)pipcridine-3-carboxylic acid], on S1P1, the EC50 stood at 4.5 nM and the “S1P3/S1P1 GTPγS (ratio of S1P3 GTPγS EC50 to S1P1 GTPγS EC50)” value is ≥ 6900*. Moreover, the EC50 on S1P3 was greater than 31000 nM.
